Assay [1] has as its system Jurkat cells. Kind of assay: Microinjection of Alexa Fluor 594. It is filed as cell-based, human. The settings on record: 5 μg/mL reagent. How it is done: The concentration of the reagents used was 5 μg/mL.
The solutions of adhesamine (1), Type I collagen, poly-L-lysine hydrochloride, and fibronectin were prepared by diluting with PBS containing 1% (v/v) DMSO. 10 μL of each solution (1 mg/mL) was added to glass bottom culture dishes (35 mm uncoated dish). 2 mL of cell suspension in a culture medium was added to each well at a density of 2×10^5 cells/mL. After 14-hour incubation at 37° C., Alexa Fluor 594 (Molecular Probes, USA) at a concentration of 5 mg/mL was injected into Jurkat cells by using a CI-2000 automated cell injection system (Fujitsu, Japan). Success rates of the microinjection were evaluated by direct observation of the fluorescent cells through a fluorescent-microscopic window of the injection system. The data shown are means±SD for a minimum of three experiments. 20 cells were injected in each experiment.

Another assay concerns HepG2 cells. Kind of assay: Focal adhesion formation, anti-vinculin staining. It is filed as cell-based. The settings on record: HepG2, immediately after seeding. How it is done: Trypsin-treated HepG2 cells were plated for 3 hours onto coverslips to which adhesamine was added; fixed thereon; and stained with anti-vinculin antibody and Alexa Fluor 488 goat anti-mouse IgG.
The cells were also stained with an antibody against vinculin, a marker of focal adhesion. […] These observations indicate that the adhesamine-induced contacts of the cells to the plates initiate a normal schedule of cell adhesion^(2,3).

Assay [2] relates to Jurkat cells. As to the kind of experiment: Visualization of actin cytoskeleton with rhodamine-conjugated phalloidin, Jurkat. It is filed as cell-based, human. The settings on record: 6 μM. The protocol:
In (A) and (B), the cell growth was determined at 24, 48, and 72 hours after the addition of adhesamine (1) (6 μM). The cell growth in the presence of 1% (v/v) DMSO was assigned a value of 100%. The data shown are means±SD for a minimum of three experiments. (C) to (F) show the rearrangement of actin filaments in HepG2 and Jurkat cells in the presence of adhesamine (6 μM). Brightfield images (C and D) and confocal images (E and F) are shown. HepG2 (C and E) or Jurkat (D and F) cells were plated for 5 hours or 3 hours, respectively, and actin cytoskeletal was visualized using rhodamine-labeled phalloidin.
Jurkat or HepG2 cells were plated onto glass coverslips in the presence of adhesamine (6 μM). They were fixed after 5 or 3 hours, respectively, with 4% paraformaldehyde for 20 minutes. The cell membrane was permeabilized by 5-min treatment with 0.1% Triton X-100 (in PBS). Samples were washed twice with PBS, and actin cytoskeleton was visualized with rhodamine-conjugated phalloidin according to the manufacturer's instructions (Invitrogen). The cell images were captured with a Yokogawa CSU22 confocal fluorescence microscope with 588-nm laser excitation.

Consider `CSc1nc(Cl)c(C=O)c(N2CC[N+]3(CC2)CC[N+]2(CCN(c4nc(SC)nc(Cl)c4C=O)CC2)CC3)n1` [adhesamine], for which, in the assay with Jurkat cells [1], the “effect on microinjection success” value is “more than type I collagen, poly-L-lysine hydrochloride, and fibronectin”; the microinjection success rates was no more than 80%. Also, in the assay on HepG2 cells, the vinculin-containing focal adhesions entry was “Vinculin-containing focal adhesions were observed”. The “actin cytoskeleton structure in adhered cells” value in the assay on Jurkat cells [2] was “well-organized cortical actin structure”.

The record behind these values is patent publication US8685976B2, “Cell adhesion promoting agent and method of promoting cell adhesion” (Kyoto University, priority 2008, dated 2014).
